Test results: patent US20070178152A1, “Carboxyalkylcellulose esters for administration of poorly soluble pharmaceutically active agents” (priority 2005, published 2007)
“And” between values parts separate entries of the source, which are not always exact repeats. Identical values can stand only once.

Key:
[1] = Dissolution of glyburide and glyburide solid dispersions in SIFsp, pH 6.8; format: physicochemical; parameters: drug released per capsule, Table 18C (quantity not headed): unit not given here; details: for % Drug Released / Total Drug Released / Normalized Drug Released / drug released per capsule, Table 18C (quantity not headed): gelatin capsule
Procedure: (§1) All dissolution studies were performed on a Varian VK7025 Dissolution Apparatus equipped with a Varian VK8000 Fraction Collector
(§2) HPLC Methods for Evaluating Dissolution Aliquots:
(§3) Determination of Weight % Phenytoin, Carbamazepine, Glyburide, or Griseofulvin.
(§4) Mobile Phase: 55% acetonitrile/45% ammonium acetate buffer (2.6 g NH4OAc/L H2O with pH adjusted to pH˜5.25 with glacial acetic acid)
(§5) Column: Agilent Eclipse XDB-C8, 4.6 mm×150 mm×5 μm
(§6) Detection: UV 254 nm (UV 214 nm can also be used for phenytoin or carbamazepine, UV 291 nm can also be used for griseofulvin); typically five signals were selected from UV 214 nm, 222 nm, 254 nm, 287 nm, 291 nm, and/or 325 nm were collected for each sample.
Preparation of Glyburide Standard Curves
Glyburide reference standard from USP was dried as directed (106° C. for six hours), then approximately 20-25 mg of glyburide are added to a 25-mL volumetric flask and dissolved in DMSO or 55% acetonitrile/45% ammonium acetate, pH 5.25. The volume was diluted to 25 mL. A set of standard dilutions were prepared either using 10-mL volumetric flasks or Rainin automatic pipetmen.
(§7) Simulated Intestinal Fluid, without pancreatin, pH 6.8 (SIFsp, pH 6.8)—Added monobasic potassium phosphate (KH2PO4, 34 g) to a 4000-mL beaker. Added deionized/polished water (2000 mL) and mixed using a magnetic stir bar until the KH2PO4 is completely dissolved. Added 0.2 N sodium hydroxide (NaOH, 590 mL) and stirred. The pH was adjusted to pH 6.8±0.1 using 0.2 N NaOH. The sample was diluted with deionized/polished water to a final volume of 5000 mL.
(§8) The SIFsp media was heated to ˜45° C. in four 2000-mL Kimax bottles in an oven. The sample was degassed according to USP protocol by filtering through a 0.45 μm membrane filter (Pall, Supor-450, 0.45 μm, 90 mm, part # 60200, Lot # 43214) and stirring under vacuum for 5 minutes.
(§9) Dissolution Conditions #1.
(§10) Dissolution Conditions #2.
These Examples describe the dissolution of glyburide and glyburide solid Dispersions by evaluating the samples described in Examples 109-117. SlFsp, pH 6.8 media preperation was described in the Materials and Methods section.
Samples were transferred into gelatin capsules (Capsugel, size OCS, Lot #624282) using a manual single capsule filler. The weight of each capsule and the amount of sample added are found in Table 18 (Capsule Description).
These Examples describe the dissolution of glyburide and glyburide solid dispersions by evaluating the samples described in Examples 119-124. SIFsp, pH 6.8 media preperation was described in the Materials and Methods section.
Samples were transferred into gelatin capsules (Capsugel, size OCS, Lot # 624282) using a manual single capsule filler. The weight of each capsule and the amount of sample added are found in Tables 19 and 20 (Capsule Description).

[2] = Dissolution of griseofulvin and griseofulvin solid dispersions (with or without surfactant) in SIFsp, pH 6.8; format: physicochemical; details: for % Drug Released / Total Drug Released: SIFsp pH 6.8, gelatin capsule, single vessel; for Average % Released: SIFsp, pH 6.8, average of runs
Procedure: as §1, §2, §3, §4, §5, §6, §7, §8, §9, §10
These Examples describe the dissolution of griseofulvin and griseofulvin solid dispersions by evaluating the samples described in Examples 125-134. SlFsp, pH 6.8 media preparation was described in the Materials and Methods section.
Samples were transferred into gelatin capsules (Capsugel, size 0CS, Lot # 624282) using a manual single capsule filler. The weight of each capsule and the amount of sample added are found in Table 21 and 22 (Capsule Description).
These Examples describe the impact of surfactant additives on the dissolution profiles of griseofulvin/CMCAB solid dispersions. Preparations of the griseofulvin/CMCAB, griseofulvin/CMCAB/Tween 80, and griseofulvin/CMCAB/SDS solid dispersions evaluated in this example are described in Examples 135-138. SIFsp, pH 6.8 media preparation was described in the Materials and Methods section.
Samples were transferred into gelatin capsules (Capsugel, size 00CS, Lot # 637785) using a manual single capsule filler. The weight of each capsule and the amount of sample added are found in Table 23 (Capsule Description).

SMILES: COc1ccc(Cl)cc1C(=O)NCCc1ccc(S(=O)(=O)NC(=O)NC2CCCCC2)cc1 [Glyburide]
- Average % Released ([1]; 10 min, average of capsules): 0.1549%
- Average % Released ([1]; 10 min, average of vessels): 0.0373%
- % Drug Released ([1]; 10 min, single vessel): 0.0362% and 0.0355% and 0.0403%
- Total Drug Released ([1]; 15 min, single vessel): 0.0321 mg
- Average % Released ([1]; 20 min, average of capsules): 1.0081%
- Average % Released ([1]; 20 min, average of vessels): 0.2490%
- Normalized Drug Released ([1]; 20 min): 0.7201 mg and 0.7299 mg
- drug released per capsule, Table 18C (quantity not headed) ([1]; 20 min): 1.0149 and 1.0013
- % Drug Released ([1]; 20 min, single vessel): 0.0355% and 0.2912% and 0.4202%
- Average % Released ([1]; 30 min, average of capsules): 1.2315%
- Average % Released ([1]; 30 min, average of vessels): 0.4372%
- Normalized Drug Released ([1]; 30 min): 0.8728 mg and 0.8986 mg
- drug released per capsule, Table 18C (quantity not headed) ([1]; 30 min): 1.2495 and 1.2136
- % Drug Released ([1]; 30 min, single vessel): 0.4237% and 0.4293% and 0.4587%
- Total Drug Released ([1]; 45 min, single vessel): 0.3834 mg and 0.3424 mg and 0.4071 mg
- Average % Released ([1]; 60 min, average of capsules): 1.7763%
- Average % Released ([1]; 60 min, average of vessels): 0.5522%
- Normalized Drug Released ([1]; 60 min): 1.2890 mg and 1.2660 mg
- drug released per capsule, Table 18C (quantity not headed) ([1]; 60 min): 1.7923 and 1.7603
- % Drug Released ([1]; 60 min, single vessel): 0.4365% and 0.5720% and 0.6480%
- Total Drug Released ([1]; 60 min, single vessel): 0.3950 mg and 0.4562 mg and 0.5752 mg
- Total Drug Released ([1]; 90 min, single vessel): 0.6124 mg and 0.6166 mg and 0.7677 mg
- Average % Released ([1]; 120 min, average of capsules): 2.1001%
- Average % Released ([1]; 120 min, average of vessels): 0.7716%
- Normalized Drug Released ([1]; 120 min): 1.5740 mg and 1.4468 mg
- drug released per capsule, Table 18C (quantity not headed) ([1]; 120 min): 2.1886 and 2.0117
- % Drug Released ([1]; 120 min, single vessel): 0.6767% and 0.7732% and 0.8649%
- Total Drug Released ([1]; 120 min, single vessel): 0.7134 mg and 0.7222 mg and 0.8356 mg
- Total Drug Released ([1]; 150 min, single vessel): 0.8270 mg and 0.8369 mg and 0.9711 mg
- Average % Released ([1]; 180 min, average of capsules): 2.2533%
- Average % Released ([1]; 180 min, average of vessels): 0.8784%
- Normalized Drug Released ([1]; 180 min): 1.6724 mg and 1.5688 mg
- drug released per capsule, Table 18C (quantity not headed) ([1]; 180 min): 2.3253 and 2.1813
- % Drug Released ([1]; 180 min, single vessel): 0.7882% and 0.9056% and 0.9414%
- Total Drug Released ([1]; 180 min, single vessel): 0.8919 mg and 0.9402 mg and 0.9572 mg
- Total Drug Released ([1]; 210 min, single vessel): 0.9428 mg and 0.9956 mg and 1.4143 mg
- Average % Released ([1]; 240 min, average of capsules): 2.3376%
- Average % Released ([1]; 240 min, average of vessels): 1.0191%
- Normalized Drug Released ([1]; 240 min): 1.7153 mg and 1.6471 mg
- Total Drug Released ([1]; 240 min): 0.1934 mg and 0.1252 mg
- drug released per capsule, Table 18C (quantity not headed) ([1]; 240 min): 2.3850 and 2.2902
- % Drug Released ([1]; 240 min, single vessel): 0.9138% and 1.0495% and 1.0941%
- Total Drug Released ([1]; 240 min, single vessel): 1.0358 mg and 1.0726 mg and 1.2243 mg
- Average % Released ([1]; 300 min, average of capsules): 2.4335%
- Average % Released ([1]; 300 min, average of vessels): 1.0810%
- Normalized Drug Released ([1]; 300 min): 1.7802 mg and 1.7202 mg
- Total Drug Released ([1]; 300 min): 0.2583 mg and 0.1982 mg
- drug released per capsule, Table 18C (quantity not headed) ([1]; 300 min): 2.4752 and 2.3918
- % Drug Released ([1]; 300 min, single vessel): 0.9855% and 1.1790% and 1.0784%
- Average % Released ([1]; 360 min, average of capsules): 2.5067%
- Average % Released ([1]; 360 min, average of vessels): 1.2945%
- Normalized Drug Released ([1]; 360 min): 1.8465 mg and 1.7592 mg
- Total Drug Released ([1]; 360 min): 0.3246 mg and 0.2373 mg
- drug released per capsule, Table 18C (quantity not headed) ([1]; 360 min): 2.5674 and 2.4461
- % Drug Released ([1]; 360 min, single vessel): 1.0417% and 1.2484% and 1.5934%
- Average % Released ([1]; 450 min, average of capsules): 2.5617%
- Average % Released ([1]; 450 min, average of vessels): 1.2896%
- Normalized Drug Released ([1]; 450 min): 1.8424 mg
- Total Drug Released ([1]; 450 min): 0.3205 mg
- drug released per capsule, Table 18C (quantity not headed) ([1]; 450 min): 2.5617
- % Drug Released ([1]; 450 min, single vessel): 1.1444% and 1.3449% and 1.3793%

SMILES: COC1=CC(=O)C[C@@H](C)[C@]12Oc1c(Cl)c(OC)cc(OC)c1C2=O [griseofulvin, Griseofulvin]
- % Drug Released ([2]; 15 min): 39.8059% and 45.3135% and 36.6133% and 35.8167%
- Total Drug Released ([2]; 15 min): 13.1651 mg and 12.7375 mg and 12.9809 mg and 12.9579 mg
- % Drug Released ([2]; 30 min): 37.0470% and 36.5664% and 39.6132% and 46.9736%
- Total Drug Released ([2]; 30 min): 13.1347 mg and 13.2291 mg and 13.1014 mg and 13.0986 mg
- % Drug Released ([2]; 45 min): 36.6587% and 36.6412% and 39.5262% and 47.1475%
- Total Drug Released ([2]; 45 min): 12.9970 mg and 13.2561 mg and 13.0726 mg and 13.1471 mg
- % Drug Released ([2]; 60 min): 37.2839% and 36.7251% and 40.3033% and 46.5134%
- Total Drug Released ([2]; 60 min): 13.2187 mg and 13.2865 mg and 13.3296 mg and 12.9703 mg
- % Drug Released ([2]; 90 min): 36.3266% and 35.9752% and 39.8005% and 51.1520%
- Total Drug Released ([2]; 90 min): 12.8793 mg and 13.0152 mg and 13.1633 mg and 14.2638 mg
- % Drug Released ([2]; 120 min): 38.9498% and 36.7450% and 40.2775% and 47.3403%
- Total Drug Released ([2]; 120 min): 13.8093 mg and 13.2937 mg and 13.3211 mg and 13.2009 mg
- % Drug Released ([2]; 150 min): 36.6774% and 35.8335% and 39.6316% and 47.7972%
- Total Drug Released ([2]; 150 min): 13.0036 mg and 12.9639 mg and 13.1075 mg and 13.3283 mg
- % Drug Released ([2]; 180 min): 36.6068% and 35.6474% and 39.0996% and 46.7861%
- Total Drug Released ([2]; 180 min): 12.9786 mg and 12.8966 mg and 12.9315 mg and 13.0464 mg
- % Drug Released ([2]; 210 min): 37.1385% and 35.7882% and 39.5796% and 46.7393%
- Total Drug Released ([2]; 210 min): 13.1671 mg and 12.9476 mg and 13.0903 mg and 13.0333 mg
- % Drug Released ([2]; 240 min): 36.7973% and 36.6212% and 39.5780% and 46.2187%
- Total Drug Released ([2]; 240 min): 13.0461 mg and 13.2489 mg and 13.0897 mg and 12.8881 mg
- griseofulvin release profile ([2]; SIFsp pH 6.8, FIGS. 7-14, in words): rapid release
- Average % Released ([2]; 15 min): 39.3874%
- Average % Released ([2]; 30 min): 40.0500%
- Average % Released ([2]; 45 min): 39.9934%
- Average % Released ([2]; 60 min): 40.2064%
- Average % Released ([2]; 90 min): 40.8136%
- Average % Released ([2]; 120 min): 40.8282%
- Average % Released ([2]; 150 min): 39.9849%
- Average % Released ([2]; 180 min): 39.5350%
- Average % Released ([2]; 210 min): 39.8114%
- Average % Released ([2]; 240 min): 39.8038%
